The IC50 is the concentration at which inhibition is half-maximal.

Assay [1] addresses T1, Cathepsin D (Cat D) (Homo sapiens, UniProt P07339).
T1 construct: made in house; host or cells: CHO cells
In words: In vitro enzymatic Cathepsin D (Cat D) FRET assay. It counts as biochemical. To be noted: read-out: CatD IC50. As for the experimental part: In Vitro Enzymatic Cathepsin D (Cat D) FRET (Fluorescence Resonance Energy Transfer) Assay
Recombinant Cat D was expressed in CHO cells. The assay buffer for CathepsinD is 0.05 M citrate pH 3.5, 10% DMSO final, 5 mM CHAPS. The Cat D enzyme (9 nM) is pre-incubated for one hour with inhibitors, typically in about 1 uL of DMSO according to a serial dilution, is added thereto. The assays are effectively started by the addition of different FRET substrates (20 nM for Cat D) and the combination is incubated for one hour. The FRET assay is terminated with by addition of Tris buffer, which raises the pH to neutrality, and the fluorescence is determined. The FRET substrate is a peptide with commercially available fluorophore and quencher, on opposite sides of the BACE cleavage site. The Cat D substrate peptide sequence is based on sequence #1 of Table 1 from Gulnik et al. FEBS Letters v413 p 379-384 1997. Proteolytic cleavage of the FRET substrate releases quenching of fluorescence (Cat D excitation 500 nm and emission 580 nm). […]
Where available, the in-vitro Cat D FRET assay data for each of the Examples, conducted by the first procedure, is provided in Tables 1 and 3. For example, the compound of example 28 has a Cat D IC50 value of >400 uM.

In assay [2] the test system is Aβ40 in conditioned medium of cells stably expressing Amyloid Precursor Protein (APP). Kind of assay: In vitro BACE cell-based assay (HEK cell assay, Aβ40 sandwich ELISA). To be noted: Homo sapiens, HEK293. As for the experimental part: In Vitro BACE Cell-Based Assay
The cell-based assay measures inhibition or reduction of Aβ40 in conditioned medium of test compound treated cells expressing amyloid precursor protein.
Cells stably expressing Amyloid Precursor Protein (APP) were plated at a density of 40K cells/well in 96 well plates (Costar). The cells were cultivated for 24 hours at 37° C. and 5% CO2 in DMEM supplemented with 10% FBS. The test compounds were then added to cells in 10-point dose response concentrations with the starting concentration being either 100 μM or 10 μM. The compounds were diluted from stock solutions in DMSO and the final DMSO concentration of the test compounds on cells was 0.1%. After 24 h of incubation with the test compounds the supernatant conditioned media was collected and the Aβ 40 levels were determined using a sandwich ELISA. The IC50 of the compound was calculated from the percent of control or percent inhibition of Aβ 40 as a function of the concentration of the test compound.
The sandwich ELISA to detect Aβ 40 was performed in 96 well microtiter plates, which were pre-treated with goat anti-rabbit IgG (Pierce). The capture and detecting antibody pair that were used to detect Aβ 40 from cell supernatants were affinity purified pAb40 (Biosource) and biotinylated 6E10 (Signet Labs Inc.), respectively. The optimal concentration for the pAb40 antibody was 3 μg/ml in Superblock/TBS (Pierce) that was supplemented with 0.05% Tween 20 (Sigma). Optimal concentration for the detection antibody 6E10-biotinylated was 0.5 μg/ml in Superblock/TBS (Pierce) that had been supplemented with 2% normal goat serum and 2% normal mouse serum.
Cellular supernatants were incubated with the capture antibody for 3 h at 4° C., followed by 3 wash steps in TBS-tween (0.05%). The detecting antibody incubation was for 2 h at 4° C., again followed by the wash steps as described previously. The final readout of the ELISA is Time-Resolved Fluorescence (counts per minute) using Delfia reagents Streptavidin-Europium and Enhancement solutions (Perkin Elmer) and the Victor 2 multilabel counter (Perkin Elmer).
On the technique in general: An ELISA detects its analyte on a solid surface through an enzyme-linked reagent.

Assay [3] concerns the target BACE1 (Homo sapiens, UniProt P56817). In words: In vitro enzymatic BACE FRET assay. In kind it is biochemical. As to the method: In Vitro Enzymatic BACE FRET (Fluorescence Resonance Energy Transfer) Assay
Enzyme Assay Data in the Example Table I
The assay buffer used in this screen is 0.05 M acetate, pH 4.2, 10% DMSO final, 100 uM genapol (which is a nonionic detergent, below its Critical Micelle Concentration). The Beta Secretase enzyme (0.2 nM) is pre-incubated for one hour with inhibitors, typically in about 1 uL of DMSO according to a serial dilution, are added thereto. This assay is effectively started by the addition of FRET substrate (50 nM) and the combination is incubated for one hour. The FRET assay is terminated with by addition of Tris buffer, which raises the pH to neutrality, and the fluorescence is determined. The FRET substrate is a peptide with commercially available fluorophore and quencher, on opposite sides of the BACE cleavage site. Proteolytic cleavage of the FRET substrate releases quenching of fluorescence (excitation 488 nm and […]).

The mark [4] stands for this setting: average IC50, read-out: BACE1 cell assay IC50.
The mark [5] stands for this setting: average IC50, read-out: BACE1 Enzyme assay IC50.
Where [6] appears, read: Aβ40, 24 h incubation, read-out: HEK cell assay IC50.
Setting [7] is: read-out: BACE1 FRET assay IC50.

Read-outs that look alike come from different tables or passages of the source.

Sequence of BACE1 (P56817 46-501, species assumed): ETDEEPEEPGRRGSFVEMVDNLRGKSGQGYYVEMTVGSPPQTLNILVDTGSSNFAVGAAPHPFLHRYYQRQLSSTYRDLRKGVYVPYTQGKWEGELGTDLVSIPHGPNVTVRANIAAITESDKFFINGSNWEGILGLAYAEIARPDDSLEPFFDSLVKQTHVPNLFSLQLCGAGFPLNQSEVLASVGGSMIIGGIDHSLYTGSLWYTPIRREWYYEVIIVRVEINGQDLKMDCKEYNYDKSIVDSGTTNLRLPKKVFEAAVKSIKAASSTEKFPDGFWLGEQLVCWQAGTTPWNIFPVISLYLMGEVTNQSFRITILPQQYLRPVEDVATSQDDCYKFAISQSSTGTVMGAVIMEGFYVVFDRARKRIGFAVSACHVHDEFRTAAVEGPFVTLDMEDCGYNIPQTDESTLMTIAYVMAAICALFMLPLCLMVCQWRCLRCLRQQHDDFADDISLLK
T1 sequence (P07339 65-412, species assumed): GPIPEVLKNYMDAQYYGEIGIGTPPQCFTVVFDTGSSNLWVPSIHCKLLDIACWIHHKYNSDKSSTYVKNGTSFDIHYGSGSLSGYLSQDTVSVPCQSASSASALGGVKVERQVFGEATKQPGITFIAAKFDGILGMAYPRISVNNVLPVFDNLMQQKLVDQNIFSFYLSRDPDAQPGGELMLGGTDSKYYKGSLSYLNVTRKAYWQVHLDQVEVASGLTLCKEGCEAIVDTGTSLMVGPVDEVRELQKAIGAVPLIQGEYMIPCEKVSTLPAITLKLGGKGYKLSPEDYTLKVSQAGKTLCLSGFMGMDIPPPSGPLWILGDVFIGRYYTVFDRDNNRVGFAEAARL

In the case of `C[C@]12CC[C@H]([C@@](C)(c3cc(NC(=O)c4ccc(C(F)(F)F)cc4F)ccc3F)N=C1N)S2(=O)=O` [Example 122, N-(3-((1R,2R,5S)-4-amino-2,5-dimethyl-8,8-dioxido-8-thia-3-azabicyclo[3.2.1]oct-3-en-2-yl)-4-fluorophenyl)-2-fluoro-4-(trifluoromethyl)benzamide], the IC50 was over 400 µM in assay [1] (average IC50, first procedure); 0.255 µM in assay [2] (setting [4]); 0.905 µM in assay [3] (setting [5]).
For `Cc1cc(Cl)cnc1C(=O)Nc1ccc(F)c([C@@]2(C)N=C(N)[C@]3(C)CCC[C@@]2(F)S3(=O)=O)c1` [Example 8, N-(3-((1R,2R,5S)-4-Amino-1-fluoro-2,5-dimethyl-9,9-dioxido-9-thia-3-azabicyclo[3.3.1]non-3-en-2-yl)-4-fluorophenyl)-5-chloro-3-methylpicolinamide], the IC50 in assay [1] was found to be 22.7 µM; in assay [2] (setting [6]) it was 0.113 µM; in assay [3] (setting [7]), 0.004 µM.
`C[C@]12CC[C@H]([C@@](C)(c3cc(Nc4nccc5nc(C(F)(F)F)cnc45)ccc3F)N=C1N)S2(=O)=O` [Example 87, N-(3-((1R,2R,5S)-4-amino-2,5-dimethyl-8,8-dioxido-8-thia-3-azabicyclo[3.2.1]oct-3-en-2-yl)-4-fluorophenyl)-2-(trifluoromethyl)pyrido[3,4-b]pyrazin-5-amine]: the concentration for half-maximal inhibition (IC50) in assay [1] (average IC50, first procedure) is over 44.4 µM; in assay [2] (setting [4]) it was 0.313 µM; in assay [3] (setting [5]) it was 0.084 µM.
As to `Cc1cc(Cl)cnc1C(=O)Nc1ccc(F)c([C@@]2(C)N=C(N)[C@]3(C)CCC[C@@]2(C)S3(=O)=O)c1` [Example 12, N-(3-((1R,2R,5S)-4-Amino-1,2,5-trimethyl-9,9-dioxido-9-thia-3-azabicyclo[3.3.1]non-3-en-2-yl)-4-fluorophenyl)-5-chloro-3-methylpicolinamide], the values for the half-inhibitory concentration (IC50) in assay [1], in assay [2] (setting [6]) and in assay [3] (setting [7]) were 29.7 µM, 0.033 µM and 0.005 µM, respectively.
With `Cc1cc(C(F)(F)F)cnc1C(=O)Nc1ccc(F)c([C@@]2(CF)N=C(N)[C@]3(C)CC[C@H]2S3(=O)=O)c1` (single isomer, unassigned) [Example 116], the half-inhibitory concentration (IC50) was 255 µM in assay [1] (average IC50, first procedure); 0.047 µM in assay [2] (setting [4]); 0.044 µM in assay [3] (setting [5]).
For `C[C@]1(c2cc(Nc3ncc(F)c4cc(OCC5CC5)cnc34)ccc2F)N=C(N)[C@@]2(C)CC[C@@H]1S2(=O)=O` [Example 137, N-(3-((1S,2R,5R)-4-amino-2,5-dimethyl-8,8-dioxido-8-thia-3-azabicyclo[3.2.1]oct-3-en-2-yl)-4-fluorophenyl)-3-(cyclopropylmethoxy)-5-fluoro-1,7-naphthyridin-8-amine] the same measures were over 400 µM, 0.0654 µM and 0.003 µM.
`COc1cnc(C(=O)Nc2ccc(F)c([C@@]3(C)N=C(N)[C@]4(C)CC[C@H]3S4(=O)=O)c2)cn1` [Example 66, N-(3-((1R,2R,5S)-4-amino-2,5-dimethyl-8,8-dioxido-8-thia-3-azabicyclo[3.2.1]oct-3-en-2-yl)-4-fluorophenyl)-5-methoxy-2-pyrazinecarboxamide]: the IC50 was over 400 µM in assay [1] (average IC50, first procedure); 0.018 µM in assay [2] (setting [4]); 0.07 µM in assay [3] (setting [5]).
With `COc1cnc2c(Nc3ccc(F)c([C@@]4(C)N=C(N)[C@]5(C)CC[C@H]4S5(=O)=O)c3)nccc2n1` [Example 81, N-(3-((1R,2R,5S)-4-amino-2,5-dimethyl-8,8-dioxido-8-thia-3-azabicyclo[3.2.1]oct-3-en-2-yl)-4-fluorophenyl)-2-methoxypyrido[3,4-b]pyrazin-5-amine], the half-maximal inhibitory concentration (IC50) in assay [1] (average IC50, first procedure) is over 348 µM; in assay [2] (setting [4]), 0.062 µM; in assay [3] (setting [5]) it was 0.225 µM.
On to `Cc1cc(Cl)cnc1C(=O)Nc1ccc(F)c([C@@]2(C)N=C(N)[C@@H]3CCC[C@H]2S3(=O)=O)c1` [Example 17, N-(3-((1R,2R,5S)-4-Amino-2-methyl-9,9-dioxido-9-thia-3-azabicyclo[3.3.1]non-3-en-2-yl)-4-fluorophenyl)-5-chloro-3-methylpicolinamide], for which the half-maximal inhibitory concentration (IC50) stood at 2780 µM in assay [1], 0.064 µM in assay [2] (setting [6]) and 0.015 µM in assay [3] (setting [7]).
With `COc1ccc(C(=O)Nc2ccc(F)c([C@@]3(C)N=C(N)[C@]4(C)CC[C@H]3S4(=O)=O)c2)c(F)c1` [Example 124, N-(3-((1R,2R,5S)-4-amino-2,5-dimethyl-8,8-dioxido-8-thia-3-azabicyclo[3.2.1]oct-3-en-2-yl)-4-fluorophenyl)-2-fluoro-4-methoxybenzamide], the IC50 in assay [1] (average IC50, first procedure) was 4440 µM; in assay [2] (setting [4]), 0.103 µM; in assay [3] (setting [5]), 0.588 µM.
With `Cc1cc(OC(F)F)cnc1C(=O)Nc1ccc(F)c([C@@]2(C)N=C(N)[C@@]3(C)CCC[C@]2(C)S3(=O)=O)c1` [Example 13, N-(3-((1S,2R,5R)-4-Amino-1,2,5-trimethyl-9,9-dioxido-9-thia-3-azabicyclo[3.3.1]non-3-en-2-yl)-4-fluorophenyl)-5-(difluoromethoxy)-3-methylpicolinamide], the IC50 in assay [1] worked out at 8.64 µM; in assay [2] (setting [6]), 0.006 µM; in assay [3] (setting [7]), 0.013 µM.
As for `COc1cnc2c(Nc3ccc(F)c([C@@]4(C)N=C(N)[C@@]5(CF)CC[C@@H]4S5(=O)=O)c3)ncc(F)c2c1` [Example 99, N-(3-((1S,2R,5R)-4-amino-5-(fluoromethyl)-2-methyl-8,8-dioxido-8-thia-3-azabicyclo[3.2.1]oct-3-en-2-yl)-4-fluorophenyl)-5-fluoro-3-methoxy-1,7-naphthyridin-8-amine], the half-inhibitory concentration (IC50) was determined as 317 µM in assay [1] (average IC50, first procedure); 0.028 µM in assay [2] (setting [4]); 0.006 µM in assay [3] (setting [5]).
As for `Cc1cc(Cl)cnc1C(=O)Nc1ccc(F)c([C@@]2(C)N=C(N)[C@@H]3CC[C@H]2S3(=O)=O)c1` [Example 21, N-(3-((1R,2R,5S)-4-Amino-2-methyl-8,8-dioxido-8-thia-3-azabicyclo[3.2.1]oct-3-en-2-yl)-4-fluorophenyl)-5-chloro-3-methylpicolinamide], the IC50 in assay [1] is 1640 µM; in assay [2] (setting [6]), 0.081 µM; in assay [3] (setting [7]), 0.016 µM.
As for `Cn1ccc(COc2cnc3c(Nc4ccc(F)c([C@@]5(C)N=C(N)[C@@]6(C)CC[C@@H]5S6(=O)=O)c4)nccc3n2)n1` [Example 147, N-(3-((1S,2R,5R)-4-amino-2,5-dimethyl-8,8-dioxido-8-thia-3-azabicyclo[3.2.1]oct-3-en-2-yl)-4-fluorophenyl)-2-((1-methyl-1H-pyrazol-3-yl)methoxy)pyrido[3,4-b]pyrazin-5-amine], the IC50 in assay [1] (average IC50, first procedure) is over 400 µM; in assay [2] (setting [4]) it was 0.001 µM; in assay [3] (setting [5]), 0.002 µM.
`COc1cnc2c(Nc3ccc(F)c([C@@]4(C)N=C(N)[C@@H]5CCC[C@H]4S5(=O)=O)c3)nccc2n1` (stereo in doubt) [Example 19]: the IC50 came out at 1210 µM in assay [1], 0.179 µM in assay [2] (setting [6]) and 0.323 µM in assay [3] (setting [7]).

Source of the values: patent US9096615B2, “Bridged bicyclic amino thiazine dioxide compounds as inhibitors of beta-secretase and methods of use thereof” (AMGEN INC., priority 2013, dated 2015).
